Test results: the Kinase Knowledgebase extract (Sharma et al. 2016)
pIC50: −log10 of the molar value.

These compounds were tested against PIK3CG (human) (UniProt P48736) (assay: Assessment of PIK3CG Kinase Activity).
Chain of PIK3CG (human) (P48736 whole entry, looked up): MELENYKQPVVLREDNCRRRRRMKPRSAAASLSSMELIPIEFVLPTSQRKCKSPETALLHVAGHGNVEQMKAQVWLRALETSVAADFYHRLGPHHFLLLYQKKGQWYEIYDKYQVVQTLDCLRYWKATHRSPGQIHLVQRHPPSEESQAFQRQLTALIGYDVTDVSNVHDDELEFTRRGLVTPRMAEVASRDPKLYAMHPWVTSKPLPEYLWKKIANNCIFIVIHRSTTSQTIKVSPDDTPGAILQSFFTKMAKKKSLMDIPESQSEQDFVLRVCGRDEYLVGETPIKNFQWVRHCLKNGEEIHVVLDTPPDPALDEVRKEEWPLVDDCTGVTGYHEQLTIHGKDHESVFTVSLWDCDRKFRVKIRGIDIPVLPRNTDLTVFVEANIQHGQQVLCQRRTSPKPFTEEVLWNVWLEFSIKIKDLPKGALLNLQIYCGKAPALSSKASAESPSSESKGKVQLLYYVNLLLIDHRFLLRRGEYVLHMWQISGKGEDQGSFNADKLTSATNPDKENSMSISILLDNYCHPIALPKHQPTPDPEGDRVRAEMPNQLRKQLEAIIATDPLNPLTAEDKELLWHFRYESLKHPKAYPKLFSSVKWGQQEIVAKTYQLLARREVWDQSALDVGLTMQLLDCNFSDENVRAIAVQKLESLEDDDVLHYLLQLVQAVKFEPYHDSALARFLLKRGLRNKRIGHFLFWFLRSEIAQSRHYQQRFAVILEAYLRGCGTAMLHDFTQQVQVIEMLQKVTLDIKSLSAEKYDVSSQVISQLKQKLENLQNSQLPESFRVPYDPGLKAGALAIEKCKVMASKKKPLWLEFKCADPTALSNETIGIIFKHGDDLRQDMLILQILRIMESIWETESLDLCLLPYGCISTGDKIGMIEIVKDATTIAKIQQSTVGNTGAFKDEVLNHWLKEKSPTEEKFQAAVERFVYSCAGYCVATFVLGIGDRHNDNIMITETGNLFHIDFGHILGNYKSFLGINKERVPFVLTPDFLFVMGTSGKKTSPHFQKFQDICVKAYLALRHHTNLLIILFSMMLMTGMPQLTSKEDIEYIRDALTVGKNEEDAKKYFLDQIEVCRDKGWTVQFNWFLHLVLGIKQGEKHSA

pIC50, > 6.10:
CC(=O)Nc1nc2c(s1)-c1c(c(C(=O)O)nn1-c1ccccc1Cl)CC2
CC(=O)Nc1nc2c(s1)-c1c(c(-c3ccoc3)nn1-c1ccccc1Cl)CC2
CC(=O)Nc1nc2c(s1)-c1nn(C(=O)c3ccco3)cc1CC2
CC(=O)Nc1nc2c(s1)-c1c(cnn1-c1ccc(C(=O)N[C@@H](CC(=O)O)C(N)=O)cc1Cl)CC2
CC(=O)Nc1nc2c(s1)-c1c(c(C(=O)N3CCOCC3)nn1-c1ccccc1Cl)CC2
CC(=O)Nc1nc2c(s1)-c1c(cnn1-c1ccc(C(=O)Nc3nc4ccccc4[nH]3)cc1)CC2
CC(=O)Nc1nc2c(s1)-c1c(cnn1-c1ccc(S(=O)(=O)N(C)CCN(C)C)cc1)CC2
CNS(=O)(=O)c1ccc(-n2ncc3c2-c2sc(NC(C)=O)nc2CC3)cc1
CC(=O)Nc1nc2c(s1)-c1c(cnn1-c1cccc3ccccc13)CC2
CC(=O)Nc1nc2c(s1)-c1cc(NC(=O)C(C)C)ccc1CC2
COCc1nn(-c2ccc(C(=O)N[C@H]3CC[C@@H](N4CCCC4)CC3)cc2Cl)c2c1CCc1nc(NC(C)=O)sc1-2
CC(=O)Nc1nc2c(s1)-c1c(cnn1-c1ccc(C(=O)N[C@@H](CCS(C)(=O)=O)C(N)=O)cc1Cl)CC2
CC(=O)Nc1nc2c(s1)-c1c(cnn1-c1ccc(C(=O)N[C@H]3CC[C@H](N4CCOCC4)CC3)cc1)CC2
CCN(CC)CC1CCCCN1C(=O)c1ccc(-n2ncc3c2-c2sc(NC(C)=O)nc2CC3)cc1 (stereo unspecified)
CC(=O)Nc1nc2c(s1)-c1c(cnn1-c1ccc(C(=O)N[C@H]3CC[C@@H](N4CCN(c5ccccc5)CC4)CC3)cc1)CC2
CC(=O)Nc1nc2c(s1)-c1c(cnn1-c1ccc(CC(=O)NCCCN(C)C)cc1)CC2
CC(=O)Nc1nc2c(s1)-c1c(c(-c3ccco3)nn1-c1ccc(C(=O)N(C)C)cc1Cl)CC2
CC(=O)Nc1nc2c(s1)-c1nc(NCCCC(=O)O)ncc1CC2
CC(=O)Nc1nc2c(s1)-c1c(cnn1-c1ccc(N3C4CCC3CC(O)C4)cc1)CC2 (stereo unspecified)
CC(=O)Nc1nc2c(s1)-c1c(cnn1-c1ccc(C(=O)O)cc1)CC2
CC(=O)Nc1nc2c(s1)-c1c(c(-c3ccccn3)nn1-c1ccccc1C(F)(F)F)CC2
CC(=O)Nc1nc2c(s1)-c1nn(-c3ccc(C(=O)NC4CCN(C)CC4)cc3Cl)c(-c3ccco3)c1CC2
CC(=O)Nc1nc2c(s1)-c1nn(C(C)=O)cc1CC2
CC(=O)Nc1nc2c(s1)-c1nc(N3CCCOCC3)ncc1CC2
CC(=O)Nc1nc2c(s1)-c1c(c(-c3c[nH]cn3)nn1-c1ccccc1Cl)CC2
O=C(CNC[C@H](O)[C@@H](O)[C@H](O)[C@H](O)CO)Nc1nc2c(s1)-c1c(cnn1-c1ccccc1)CC2
CC(=O)Nc1nc2c(s1)-c1c(cnn1-c1cc(Cl)ccc1Cl)CC2
CC(=O)Nc1nc2c(s1)-c1c(c(-c3ccco3)nn1-c1ccc(C(=O)N[C@H]3CC[C@@H](N4CCCC4)CC3)cc1Cl)CC2
C#CCN(C)C(=O)c1ccc(-n2ncc3c2-c2sc(NC(C)=O)nc2CC3)cc1
CC(=O)Nc1nc2c(s1)-c1c(cnn1-c1ccc(C(=O)N[C@H](CC(C)C)C(N)=O)cc1Cl)CC2
COC(=O)c1nn(-c2ccccc2Cl)c2c1CCc1nc(NC(C)=O)sc1-2
CN(C)CCCC(=O)Nc1nc2c(s1)-c1c(cnn1-c1ccccc1)C2
CC(=O)Nc1nc2c(s1)-c1c(c(C(C)C)nn1-c1ccc(C(=O)N(C)Cc3ccncc3)cc1Cl)CC2
CC(=O)Nc1nc2c(s1)-c1c(c(C)nn1-c1ccccc1)CC2
CC(=O)Nc1nc2c(s1)-c1nc(C(C)C)ncc1CC2
CC(=O)Nc1nc2c(s1)-c1c(cnn1-c1ccc(CC(=O)NCCN3CCCC3=O)cc1)CC2
CN(C)CCN(C)C(=O)Nc1nc2c(s1)-c1c(cnn1-c1ccccc1)C2
CC(=O)Nc1nc2c(s1)-c1c(cnn1-c1ccc(C(=O)N[C@H]3CCc4nc(N)sc4C3)cc1)CC2
CC(=O)Nc1nc2c(s1)-c1nn(C(=O)c3ccc(Cl)cc3)cc1CC2
CC(=O)Nc1nc2c(s1)-c1c(cnn1-c1ccc(C(=O)N3CCOCC3)cc1)CC2
CCSc1ncc2c(n1)-c1sc(NC(C)=O)nc1CC2
CC(=O)Nc1nc2c(s1)-c1c(cnn1-c1ccc(C(=O)NCCc3cccnc3)cc1)CC2
CC(=O)Nc1nc2c(s1)-c1c(cnn1-c1ccc(C(=O)N[C@H]3CC[C@H](N4CCCC4)CC3)cc1)CC2
CC(=O)Nc1nc2c(s1)-c1c(c([C@H]3CCCO3)nn1-c1ccccc1Cl)CC2
CC(=O)Nc1nc2c(s1)-c1c(c(C(C)C)nn1-c1ccccc1Cl)CC2
CC(=O)Nc1nc2c(s1)-c1c(c(C(C)C)nn1-c1ccccc1C(F)(F)F)CC2
CC(=O)Nc1nc2c(s1)-c1nc(N3CCCC(C)(C)C3)ncc1CC2
CC(=O)Nc1nc2c(s1)-c1c(cnn1-c1ccc(C(=O)N3CCCC(CO)C3)cc1)CC2 (stereo unspecified)
CN(C)c1ncc2c(n1)-c1sc(N)nc1CC2
CC(=O)Nc1nc2c(s1)-c1c(cnn1-c1ccc(C(=O)NCC(F)(F)F)cc1)CC2
CC(=O)Nc1nc2c(s1)-c1c(cnn1-c1ccc(C(=O)N3CCCCC3CO)cc1)CC2 (stereo unspecified)
CCNC(=O)Nc1nc2c(s1)-c1c(cnn1-c1ccccc1)CC2
CC(=O)Nc1nc2c(s1)-c1c(cnn1-c1ccc(CC(=O)O)cc1)CC2
CNC(=O)Nc1nc2c(s1)-c1nc(N(C)C)ncc1CC2
CC(=O)Nc1nc2c(s1)-c1c(c(-c3ccco3)nn1-c1ccc(C(=O)N[C@H]3CC[C@H](N4CCCC4)CC3)cc1Cl)CC2
CC(=O)Nc1nc2c(s1)-c1c(c(-c3ccccn3)nn1-c1ccccc1Br)CC2
Nc1nc2c(s1)-c1c(cnn1-c1ccc([N+](=O)[O-])cc1)CC2
CC(=O)Nc1nc2c(s1)-c1c(cnn1C1CCN(C(=O)C(F)(F)F)CC1)CC2
CC(=O)Nc1nc2c(s1)-c1c(cnn1-c1ccc(C(=O)NCCc3cn[nH]c3)cc1)CC2
CC(=O)Nc1nc2c(s1)-c1c(cnn1-c1ccc(C(=O)NCC3CC3)cc1)CC2
CC(=O)Nc1nc2c(s1)-c1c(cnn1-c1cc(F)ccc1C)CC2
